Test results reported in patent US20220087983A1, “ACTIVATING PYRUVATE KINASE R” (FORMA Therapeutics, Inc., priority 2020, published 2022).

What was measured:
[1] = Phase 1: hematologic and hemolytic parameters in SCD patients; assay type: in vivo, human; conditions: single 700 mg dose, 24 h
[2] = tested on: H295R adreno-cortical carcinoma cell line; test: Cell viability (MTT Kit); assay type: cell-based; conditions: at 200 μM
Experimental: To assess potential effects on steroidogenesis, Compound 1 was screened for steroid modulation in vitro using the H295R adreno-cortical carcinoma cell line (at 200 to 0.0002 μM) and in an assay to monitor cell viability (MTT Kit). Compound 1 indicated steroid modulation potential (% over vehicle) only at 200 μM, the top concentration tested, with 100% cellular viability at concentrations≤20 μM (90% viability at 200 μM).

2,3-DPG blood levels = test: Phase 1: blood 2,3-DPG levels in healthy volunteers (LC-MS/MS); assay type: in vivo, human; conditions: for Mean maximum percent change from baseline in 2,3-DPG: all doses and timepoints
Experimental: In this study, SAD/MAD cohorts are randomized (3 to 1) to receive Compound 1 or placebo (P). Compound 1 was evaluated first in 4 healthy SAD cohorts and 4 healthy MAD (14-day dosing period) cohorts. Based on the safety, and PK/PD profile from HS, Compound 1 is then evaluated in 1 SCD SAD cohort and 2 SCD MAD cohorts. Specifically, based on the safety and pharmacokinetic/pharmacodynamics (PK/PD) profile in healthy volunteer studies, Compound 1 is evaluated in patients (pts) with SCD, first in a single dose (SD or SAD) cohort and then in multiple-dose (MD or MAD) cohorts (14-day and 12-week). Safety assessments include AEs, vital signs, ECGs and laboratory parameters. PK/PD blood sampling was performed on Day 1 (SAD/MAD) and Day 14 (MAD) and up to 72 h after the last dose and at the end-of-study visit. PD parameters included 2,3-DPG, ATP, and p50 in all cohorts with additional PD studies (including oxygen scan) performed only in the SCD cohorts. PD parameters included 2,3-DPG, ATP, p50, RBC deformability with controlled deoxygenation and reoxygenation (Lorrca® oxygen scan) and varying osmolality (Lorrca® osmoscan)). To maintain study blind, pt identifiers were removed when needed.
In the SAD cohorts, the subjects' blood 2,3-DPG levels were measured periodically after dosing by a qualified LC-MS/MS method for the quantitation of 2,3-DPG in blood. Decreased 2,3-DPG blood levels were observed 6 hours following a single dose of Compound 1 at all dose levels (earlier timepoints were not collected). Maximum decreases in 2,3-DPG levels generally occurred ˜24 hours after the first dose with the reduction sustained ˜48-72 hr postdose. Table 15 reports the median percentage change in 2,3-DPG blood levels, relative to baseline, measured over time in healthy volunteers after a single dose of Compound 1 (200 mg, 400 mg, 700 mg, or 1000 mg) or placebo. Table 16 reports the mean percentage change in 2,3-DPG blood levels, relative to baseline, measured over time in healthy volunteers after a single dose of Compound 1 (200 mg, 400 mg, 700 mg, or 1000 mg). Accordingly, the median and mean reduction in the concentration of 2,3-DPG, relative to baseline, was at least about 30% at all dose levels tested 24 hours after administration of the single dose.
In the MAD cohorts, the subjects' blood 2,3-DPG levels were measured periodically after dosing by a qualified LC-MS/MS method for the quantitation of 2,3-DPG in blood. The maximum decrease in 2,3-DPG on Day 14 was 55% from baseline (median). […] Table 18A reports the median percentage change in 2,3-DPG blood levels, relative to baseline, measured over time after the first dose on days 1 and 14 in healthy volunteers who received daily doses of Compound 1 (100 mg BID, 200 mg BID, or 300 mg BID) or placebo for 14 days. Table 18B reports the mean percentage change in 2,3-DPG blood levels, relative to baseline, measured over time after the first dose on days 1 and 14 in healthy volunteers who received daily doses of Compound 1 (100 mg BID, 200 mg BID, 300 mg BID, or 400 mg QD) for 14 days. Accordingly, the median and mean reduction in the concentration of 2,3-DPG, relative to baseline, was at least about 25% at all dose levels tested 24 hours after administration of the first dose on day 1 and at least about 40% at all dose levels tested 24 hours after administration of the first dose on day 14.
The following procedures are employed for the analysis of ATP and 2,3-DPG in human whole blood K2EDTA using a protein precipitation extraction procedure and analysis by LC-MS/MS.
The following procedures are used for sample extraction prior to analysis via LC-MS/MS. 15.0 μL of the calibration standards, quality controls, matrix blanks, and samples are aliquoted into a 96-well plate. 50.0 μL of the internal standard spiking solution is added to all samples on the plate, with the exception of the matrix blank samples; 50.0 μL of water is added to the matrix blank samples. […]

wt-PKR = wt-PKR (Homo sapiens, UniProt P30613); test: Enzyme assay of PKR kinetics and activation (Example 3); assay type: biochemical; conditions: PEP at or below Km
Experimental: The ability of Compound 1 to activate PKR in enzyme-based assays was measured.
Tests were conducted in the presence and absence of fructose-1,6-bisphosphate (FBP), a known allosteric activator of PKR.

Chain of wt-PKR (P30613 whole entry): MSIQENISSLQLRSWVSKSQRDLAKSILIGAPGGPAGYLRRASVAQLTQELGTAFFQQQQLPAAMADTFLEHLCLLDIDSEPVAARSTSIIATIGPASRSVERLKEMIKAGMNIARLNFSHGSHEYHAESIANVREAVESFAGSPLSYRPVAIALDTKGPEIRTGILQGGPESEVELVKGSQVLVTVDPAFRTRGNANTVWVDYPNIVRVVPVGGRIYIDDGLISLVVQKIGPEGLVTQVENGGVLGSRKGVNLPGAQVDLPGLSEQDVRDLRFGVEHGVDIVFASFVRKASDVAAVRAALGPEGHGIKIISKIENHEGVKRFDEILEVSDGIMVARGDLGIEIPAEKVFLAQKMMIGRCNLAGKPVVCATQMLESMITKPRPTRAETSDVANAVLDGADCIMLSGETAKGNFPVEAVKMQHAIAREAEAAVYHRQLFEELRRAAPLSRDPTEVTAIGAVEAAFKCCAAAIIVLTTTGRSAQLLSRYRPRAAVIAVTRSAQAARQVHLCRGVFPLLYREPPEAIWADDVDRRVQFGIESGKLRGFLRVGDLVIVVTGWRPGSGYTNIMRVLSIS

SMILES: O=C([C@H](CO)c1ccccc1)N1CC2=C(C1)CN(S(=O)(=O)c1cnc3c(c1)OCCO3)C2 (single isomer, unassigned) [Compound 1]
- mean Hb difference versus placebo [1]: ~0.9 g/dL
- cellular viability [2]: 90%
- maximum decrease in 2,3-DPG on Day 14 from baseline (median) (2,3-DPG blood levels; HV MAD cohorts): 55%
- median and mean reduction of 2,3-DPG relative to baseline (2,3-DPG blood levels; HV MAD, all dose levels, 24 hours after first dose on day 1): at least 25%
- median and mean reduction of 2,3-DPG relative to baseline (2,3-DPG blood levels; HV MAD, all dose levels, 24 hours after first dose on day 14): at least 40%
- Mean maximum percent change from baseline in 2,3-DPG (2,3-DPG blood levels; HV MAD, N = 36): −56.3%
- Mean maximum percent change from baseline in 2,3-DPG (2,3-DPG blood levels; HV SAD, N = 24): −46.8%
- median and mean reduction of 2,3-DPG relative to baseline (2,3-DPG blood levels; HV, all single dose levels, 24 hours after dose): at least 30%
- lag of maximum 2,3-DPG decrease behind maximum plasma concentration (2,3-DPG blood levels; HV, single 200-1000 mg dose): about 24 hours
- Median percentage change in 2,3-DPG levels (2,3-DPG blood levels; HV, single dose 200 mg, 0 h after dose): 0.0%
- Median percentage change in 2,3-DPG levels (2,3-DPG blood levels; HV, single dose 200 mg, 8 h after dose): −17%
- Median percentage change in 2,3-DPG levels (2,3-DPG blood levels; HV, single dose 200 mg, 48 h after dose): −29%
- Median percentage change in 2,3-DPG levels (2,3-DPG blood levels; HV, single dose 400 mg, 0 h after dose): 0.0%
- Median percentage change in 2,3-DPG levels (2,3-DPG blood levels; HV, single dose 400 mg, 8 h after dose): −29%
- Median percentage change in 2,3-DPG levels (2,3-DPG blood levels; HV, single dose 400 mg, 72 h after dose): −30%
- Median percentage change in 2,3-DPG levels (2,3-DPG blood levels; HV, single dose 700 mg, 0 h after dose): 0.0%
- Median percentage change in 2,3-DPG levels (2,3-DPG blood levels; HV, single dose 700 mg, 6 h after dose): −29%
- Median percentage change in 2,3-DPG levels (2,3-DPG blood levels; HV, single dose 700 mg, 16 h after dose): −46%
- Median percentage change in 2,3-DPG levels (2,3-DPG blood levels; HV, single dose 700 mg, 36 h after dose): −46%
- Median percentage change in 2,3-DPG levels (2,3-DPG blood levels; HV, single dose 1000 mg, 36 h after dose): −47%
- AC50 (wt-PKR): < 100 nM
